Earlier results as cited in patent EP0305400B1, “A COMPOSITION HAVING REDUCED NEPHROTOXICITY COMPRISING A FATTY ACID CONTAINING COMPONENT AND CYCLOSPORINE” (BRIGHAM AND WOMEN'S HOSPITAL, priority 1986, dated 1987).

System: Tx synthetase
Conditions: rats treated with CSA

Cc1c(Cn2ccnc2)c2ccccc2n1CCC(=O)O [UK-38,485]
glomerular filtration rate (GFR): improved | urinary TxB2 levels: comparable to control levels
